What is called inhibition is how much of the control response was suppressed.

Each structure is given as a SMILES string.

For one assay, the target named is Human VPS34 (Homo sapiens (Human), UniProt Q8NEB9). As to the kind of experiment: Human VPS34 enzyme assay (Adapta TR-FRET). To be noted: compound concentration 1.11 μM. The format is biochemical.
Human VPS34, sequence (Q8NEB9 whole entry): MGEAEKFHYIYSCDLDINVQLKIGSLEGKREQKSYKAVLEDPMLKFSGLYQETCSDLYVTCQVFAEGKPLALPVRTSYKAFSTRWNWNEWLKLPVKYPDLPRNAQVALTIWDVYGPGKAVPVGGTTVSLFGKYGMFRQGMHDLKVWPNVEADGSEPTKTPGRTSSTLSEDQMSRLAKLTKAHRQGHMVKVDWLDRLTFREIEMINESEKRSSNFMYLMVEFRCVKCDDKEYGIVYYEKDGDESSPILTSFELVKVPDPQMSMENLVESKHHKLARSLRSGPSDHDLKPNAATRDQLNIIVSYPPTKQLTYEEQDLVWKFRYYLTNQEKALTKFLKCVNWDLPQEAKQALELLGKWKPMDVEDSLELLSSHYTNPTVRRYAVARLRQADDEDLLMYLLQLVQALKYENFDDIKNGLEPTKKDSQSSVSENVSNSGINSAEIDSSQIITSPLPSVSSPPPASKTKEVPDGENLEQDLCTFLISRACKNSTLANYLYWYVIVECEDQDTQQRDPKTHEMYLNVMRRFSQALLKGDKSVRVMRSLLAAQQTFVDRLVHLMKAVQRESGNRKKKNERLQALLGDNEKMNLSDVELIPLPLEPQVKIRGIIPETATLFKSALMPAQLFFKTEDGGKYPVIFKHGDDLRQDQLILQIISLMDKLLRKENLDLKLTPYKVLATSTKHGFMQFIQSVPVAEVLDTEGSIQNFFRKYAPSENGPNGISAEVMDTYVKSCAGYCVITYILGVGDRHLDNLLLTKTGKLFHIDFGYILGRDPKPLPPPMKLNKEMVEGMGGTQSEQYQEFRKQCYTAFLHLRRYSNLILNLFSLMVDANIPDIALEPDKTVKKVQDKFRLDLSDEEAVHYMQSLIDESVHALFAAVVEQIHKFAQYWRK
As for `CC(=O)Nc1cc(-c2cnc(Cl)c(NS(=O)(=O)c3cn(C)nc3C(F)(F)F)c2C)ccn1` [Compound I-493, N-[6-chloro-4-methyl-5-({[1-methyl-3-(trifluoromethyl)-1H-pyrazol-4-yl]sulfonyl}amino)-3,4′-bipyridin-2′-yl]acetamide], the “Percent Inhibition” value is listed as 99%.

The same assay, now with this note: compound concentration 1.11 μM; read-out: Percent Inhibition.
As to `CC(=O)Nc1cc(-c2cncc(S(=O)(=O)NC34CC5CC(CC(C5)C3)C4)c2)ccn1` [Compound I-468, N-[5-(adamantan-1-ylsulfamoyl)-3,4′-bipyridin-2′-yl]acetamide], the inhibition at 1.11 µM is greater than 99%.

Consider `CC(=O)Nc1cc(-c2cnc(N)c(C(=O)Nc3cccc(F)c3)c2)ccn1` [Compound I-82, 2′-acetamido-6-amino-N-(3-fluorophenyl)-3,4′-bipyridine-5-carboxamide], for which the inhibition at 1.11 µM is greater than 99%.

Regarding `CC(=O)Nc1cc(-c2cnc(Cl)c(NS(=O)(=O)c3ccc(C4CC4)cc3F)c2C)ccn1` [Compound I-335, N-(6-chloro-5-{[(4-cyclopropyl-2-fluorophenyl)sulfonyl]amino}-4-methyl-3,4′-bipyridin-2′-yl)acetamide], the inhibition at 1.11 µM was 92%.

In the case of `CC(=O)Nc1cc(-c2cncc(S(=O)(=O)N3CCC3)c2)ccn1` [Compound I-474, N-[5-(azetidin-1-ylsulfonyl)-3,4′-bipyridin-2′-yl]acetamide], the inhibition at 1.11 µM is 89%.

As to `Cc1ncc(-c2ccnc(NC(=O)N3CCCC3)c2)cc1NS(=O)(=O)c1ccc(F)cc1F` [Compound I-313, N-(5-{[(2,4-difluorophenyl)sulfonyl]amino}-6-methyl-3,4′-bipyridin-2′-yl)pyrrolidine-1-carboxamide], the inhibition at 1.11 µM came to 88%.

With `CCOC(=O)Nc1cc(-c2cnc(Cl)c(NS(=O)(=O)c3ccc(F)cc3F)c2C)ccn1` [Compound I-383, ethyl (6-chloro-5-{[(2,4-difluorophenyl)sulfonyl]amino}-4-methyl-3,4′-bipyridin-2′-yl)carbamate], the inhibition at 1.11 µM came out at 91%.

Regarding `COc1ncc(-c2ccnc(NC(C)=O)c2)c(C)c1NS(=O)(=O)c1ccc(F)cc1F` [Compound I-248, N-(5-{[(2,4-difluorophenyl)sulfonyl]amino}-6-methoxy-4-methyl-3,4′-bipyridin-2′-yl)acetamide], the inhibition at 1.11 µM was greater than 99%.

`CC(=O)Nc1cc(-c2cnc(N)c(S(=O)(=O)N(C)C)c2)ccn1` [Compound I-119, N-[6-amino-5-(dimethylsulfamoyl)-3,4′-bipyridin-2′-yl]acetamide]: the inhibition at 1.11 µM was greater than 99%.

Regarding `CC(=O)Nc1cc(-c2cnc3[nH]cc(S(=O)(=O)N4CCCC4)c3c2)ccn1` [Compound I-158, N-{4-[3-(pyrrolidin-1-ylsulfonyl)-1H-pyrrolo[2,3-b]pyridin-5-yl]pyridin-2-yl}acetamide], the inhibition at 1.11 µM was greater than 99%.

As for `Cc1nccc(Nc2cc(-c3cnc(Cl)c(N(C)C)c3C)ccn2)n1` [Compound I-314, 6-chloro-N5,N5,4-trimethyl-N2′-(2-methylpyrimidin-4-yl)-3,4′-bipyridine-2′,5-diamine], the inhibition at 1.11 µM worked out at 91%.

In the case of `CC(=O)Nc1cc(-c2cnc(C)c(NS(=O)(=O)c3cc(Cl)sc3Cl)c2)ccn1` [Compound I-465, N-(5-{[(2,5-dichloro-3-thienyl)sulfonyl]amino}-6-methyl-3,4′-bipyridin-2′-yl)acetamide], the inhibition at 1.11 µM was found to be 97%.

For `CC(=O)Nc1cc(-c2cnc(Cl)c(S(=O)(=O)N[C@@H](CO)c3ccccc3)c2)ccn1` [Compound I-403, N-(6-chloro-5-{[(1R)-2-hydroxy-1-phenylethyl]sulfamoyl}-3,4′-bipyridin-2′-yl)acetamide], the inhibition at 1.11 µM was 92%.

Regarding `Cc1nccc(Nc2cc(-c3cnc(C)c(N4CCCN(C)S4(=O)=O)c3)ccn2)n1` [Compound I-288, 6-methyl-5-(6-methyl-1,1-dioxido-1,2,6-thiadiazinan-2-yl)-N-(2-methylpyrimidin-4-yl)-3,4′-bipyridin-2′-amine], the inhibition at 1.11 µM came out at 91%.

Regarding `Nc1ncc(-c2ccnc(Nc3ccncn3)c2)cc1C(=O)NC12CC(C1)C2` [Compound I-298, 6-amino-N-(bicyclo[1.1.1]pent-1-yl)-2′-(pyrimidin-4-ylamino)-3,4′-bipyridine-5-carboxamide], the inhibition at 1.11 µM was 99%.

Consider `CC(=O)Nc1cc(-c2cnc3c(c2)S(=O)(=O)N[C@@H](c2ccccc2)CO3)ccn1` [Compound I-334, (S)-N-[4-(1,1-dioxido-3-phenyl-3,4-dihydro-2H-pyrido[2,3-b][1,4,5]oxathiazepin-8-yl)pyridin-2-yl]acetamide], for which the inhibition at 1.11 µM turned out to be 82%.

Take `CC(=O)Nc1cc(-c2cnc(C)c(NS(=O)(=O)c3ccc(C(F)(F)F)nc3)c2)ccn1` [Compound I-1, N-[6-methyl-5-({[6-(trifluoromethyl)pyridin-3-yl]sulfonyl}amino)-3,4′-bipyridin-2′-yl]acetamide]: the inhibition at 1.11 µM was greater than 99%.

In the case of `CC(=O)Nc1cc(-c2cnc(C)c(N(CCO)S(=O)(=O)c3ccc(F)cc3F)c2)ccn1` [Compound I-319, N-(5-{[(2,4-difluorophenyl)sulfonyl](2-hydroxyethyl)amino}-6-methyl-3,4′-bipyridin-2′-yl)acetamide], the inhibition at 1.11 µM was determined as 94%.

`CC(=O)Nc1cc(-c2cnc(N)c(N3CCCN(C)S3(=O)=O)c2)ccn1` [Compound I-323, N-[6-amino-5-(6-methyl-1,1-dioxido-1,2,6-thiadiazinan-2-yl)-3,4′-bipyridin-2′-yl]acetamide]: the inhibition at 1.11 µM was found to be 73%.

For the compound `Cc1ncc(-c2ccnc(Nc3nc4ccccc4o3)c2)cc1NS(=O)(=O)c1ccc(F)cc1F` [Compound I-233, N-[2'-(1,3-benzoxazol-2-ylamino)-6-methyl-3,4′-bipyridin-5-yl]-2,4-difluorobenzene sulfonamide], the inhibition at 1.11 µM came out at 96%.

Take `Cc1ncc(-c2ccnc(NC(=O)C3CC3(F)F)c2)cc1NS(=O)(=O)N(C)C` (stereo not shown) [Compound I-244, N-{5-[(dimethylsulfamoyl)amino]-6-methyl-3,4′-bipyridin-2′-yl}-2,2-difluorocyclopropanecarboxamide]: the inhibition at 1.11 µM worked out at 82%.

`CC(=O)Nc1cc(-c2cnc(Cl)c(NS(=O)(=O)c3ccc(C(F)(F)F)cc3Cl)c2C)ccn1` [Compound I-333, N-(6-chloro-5-(2-chloro-4-(trifluoromethyl)phenylsulfonamido)-4-methyl-[3,4′-bipyridin]-2′-yl)acetamide]: the inhibition at 1.11 µM is greater than 99%.

Take `CC(=O)Nc1cc(-c2cnc(C)c(N3CCN(C)S3(=O)=O)c2)ccn1` [Compound I-386, N-[6-methyl-5-(5-methyl-1,1-dioxido-1,2,5-thiadiazolidin-2-yl)-3,4′-bipyridin-2′-yl]acetamide]: the inhibition at 1.11 µM stood at 96%.

As to `CC(=O)Nc1cc(-c2cncc(C=O)c2)ccn1` [Compound I-184, N-(5-formyl-3,4′-bipyridin-2′-yl)acetamide], the inhibition at 1.11 µM was 74%.

`CC(=O)Nc1cc(-c2cnc(Cl)c(NS(=O)(=O)N(C)C)c2C)ccn1` [Compound I-236, N-{6-chloro-5-[(dimethylsulfamoyl)amino]-4-methyl-3,4′-bipyridin-2′-yl}acetamide]: the inhibition at 1.11 µM amounted to 98%.

Take `Cc1nccc(Nc2cc(-c3cnc(C)c(C(=O)N(C)c4ccc(F)cc4F)c3)ccn2)n1` [Compound I-346, N-(2,4-difluorophenyl)-N,6-dimethyl-2′-[(2-methylpyrimidin-4-yl)amino]-3,4′-bipyridine-5-carboxamide]: the inhibition at 1.11 µM is 95%.

As for `CNc1ncc(-c2ccnc(NC(C)=O)c2)cc1N(CC1CC1)S(C)(=O)=O` [Compound I-141, N-{5-[(cyclopropylmethyl)(methylsulfonyl)amino]-6-(methylamino)-3,4′-bipyridin-2′-yl}acetamide], the inhibition at 1.11 µM is greater than 99%.

As to `CC(=O)Nc1cc(-c2cncc(S(=O)(=O)N3CCC(F)(F)C3)c2)ccn1` [Compound I-118, N-{5-[(3,3-difluoropyrrolidin-1-yl)sulfonyl]-3,4′-bipyridin-2′-yl}acetamide], the inhibition at 1.11 µM was greater than 99%.

`Cc1ncc(-c2ccnc(NC(=O)OCC3(C)COC3)c2)cc1NS(=O)(=O)c1ccc(F)cc1F` [Compound I-324, (3-methyloxetan-3-yl)methyl (5-{[(2,4-difluorophenyl)sulfonyl]amino}-6-methyl-3,4′-bipyridin-2′-yl)carbamate]: the inhibition at 1.11 µM is greater than 99%.

`Cc1nccc(Nc2cc(-c3cnc(Cl)c(N)c3C)ccn2)n1` [Compound I-226, 6-chloro-4-methyl-N-2′-(2-methylpyrimidin-4-yl)-3,4′-bipyridine-2′,5-diamine]: the inhibition at 1.11 µM was determined as 94%.

In the case of `COc1ncc(-c2ccnc(NC(C)=O)c2)cc1S(=O)(=O)Nc1cc(F)ccc1F` [Compound I-358, N-{5-[(2,5-difluorophenyl)sulfamoyl]-6-methoxy-3,4′-bipyridin-2′-yl}acetamide], the inhibition at 1.11 µM is greater than 99%.

Turning to `CC(=O)Nc1cc(-c2cncc(S(=O)(=O)NC34CC(C3)C4)c2)ccn1` [Compound I-190, N-[5-(bicyclo[1.1.1]pent-1-ylsulfamoyl)-3,4′-bipyridin-2′-yl]acetamide], the inhibition at 1.11 µM was found to be 96%.

On to `CC(=O)Nc1cc(-c2cnc(N)c(C(=O)NC3CC3)c2)ccn1` [Compound I-169, 2′-acetamido-6-amino-N-cyclopropyl-3,4′-bipyridine-5-carboxamide], for which the inhibition at 1.11 µM was greater than 99%.

With `CC(=O)Nc1cc(-c2cnc3c(c2)S(=O)(=O)NCCO3)ccn1` [Compound I-484, N-(4-(1,1-dioxido-3,4-dihydro-2H-pyrido[2,3-b][1,4,5]oxathiazepin-8-yl)pyridin-2-yl)acetamide], the inhibition at 1.11 µM came to 92%.

As to `CCN(CC)C(=O)c1cc(-c2ccnc(NC(C)=O)c2)cnc1N` [Compound I-27, 2′-acetamido-6-amino-N,N-diethyl-3,4′-bipyridine-5-carboxamide], the inhibition at 1.11 µM is greater than 99%.

Turning to `CC(=O)Nc1cc(-c2cncc(NS(=O)(=O)c3ccc(F)cc3F)c2C)ccn1` [Compound I-102, N-(5-{[(2,4-difluorophenyl)sulfonyl]amino}-4-methyl-3,4′-bipyridin-2′-yl)acetamide], the inhibition at 1.11 µM was greater than 99%.

As for `CC(=O)Nc1cc(-c2cnc3[nH]cc(CN(C)C)c3c2)ccn1` [Compound I-85], the inhibition at 1.11 µM worked out at 90%.

The values are drawn from patent US9802960B2 (MILLENNIUM PHARMACEUTICALS, INC., priority 2014, dated 2017).
